Experiment [1] has as its target T1, RNase P holoenzyme from Thermotoga maritima (Thermotoga maritima, UniProt Q9X1H4).
T1 construct: made in house
T1 sequence (Q9X1H4 1-117): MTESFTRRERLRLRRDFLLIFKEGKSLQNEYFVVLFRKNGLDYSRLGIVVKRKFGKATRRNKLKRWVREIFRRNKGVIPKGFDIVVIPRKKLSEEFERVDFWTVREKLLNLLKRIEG
In words: Real-time fluorescence-based (FRET) RNase P activity assay with minihelix (Mh) substrate. The experiment is classed as biochemical. The conditions noted are these: fluorescent Mh substrate 270 nM, holoenzyme 33 nM, 10% DMSO, 37°C, 400 mM AmOAc, 100 mM MgCl2. Here is the method: (§1) The reconstitution of the RNase P holoenzyme was performed as described in ([40],[19]). This protocol produces a homogeneous and functional ribozyme that can be crystallized by mixing P RNA and P protein in a 1:1.1 molar ratio in 1× TH buffer (33 mM Tris–HCl, 66 mM HEPES, pH 7.4) and 400 mM ammonium acetate (AmOAc). The mixture was heated to 95°C for 2 min in a water bath, then chilled on ice for 2 min, after which MgCl2 was added to a final concentration of 100 mM. […] This higher concentration was used in all experiments described herein. The holoenzyme was further incubated at 50°C for 10 min and 37°C for 40 min. The final concentration of holoenzyme was 333 nM (35.6 μg/ml of P RNA and 4.7 μg/ml of P protein).
The minihelix (Mh) substrate (Figure 1A) was adopted from a previously characterized RNase P substrate, pMini3bpUG ([32],[33]) and coupled to either Black Hole Quencher 1 (BHQ1) or Black Hole Quencher 2 (BHQ2) at the 5′-end and Alexa Fluor 488 at the 3′-end. This probe was purchased either from Sigma-Aldrich or Integrated DNA Technologies (IDT). A requested scale of […] yielded between 6.3 and 20 nmol (57.5 to 181 μg, enough for 1300–4000 reactions depending on the experimental substrate concentration). Before use, the minihelix was diluted from a 100 μM stock (dissolved in water) to 3.6 μM in activity buffer H (33 mM Tris–HCl, 66 mM HEPES, pH 7.4, 400 mM AmOAc and 100 mM MgCl2).
(§2) Reactions were performed in a total volume of 20 μl. Pipetting was done by hand using multichannel pipettes. First, an 18 μl reaction mixture containing 16.5 μl of activity buffer (H for Mh or L supplemented with 10% PEG 200 for bipartite pre-tRNA) and 270 nM (Mh) or 135 nM (bipartite pre-tRNA) (1.5 or 0.7 μl of the 3.6 μM stock) of the fluorescent substrate probe was pre-incubated on ice for at least 5 m in a black polystyrene 384-well microtiter microplate with a flat transparent bottom (Corning ref 3540). The holoenzyme was then added at a final concentration of 33 nM (2 μl of a 333 nM stock) in 1× TH buffer and mixed. Kinetic activity was monitored in a Synergy MX Multimode Detector (BioTek) at 37°C with rapid agitation. At least 20 readings were taken per well every 15 s. The probe was excited at 485 nm, and its emission was monitored at 535 nm with an integration time of 1 s. From the plots of relative fluorescent units (RFU) versus time, linear regression was used to determine the slopes in the linear portion of the curves, using at least 12 data points to obtain initial velocities. Non-linear fitting to obtain the Michaelis–Menten parameters was performed using GraphPad Prism® 6.01 software.
Supplementary Figure 3. FRET assays of RNase P with the fluorescent substrate are reproducible. (A) Representative plots of kinetic assays performed in a single run. The standard assay (SA), (+), was performed at 37° C in a total volume of 20 µL and contained RNase P holoenzyme at 33 nM, substrate minihelix (Mh) at 270 nM, 10% DMSO and activity buffer (AB).
The negative control assay (-) contained 100 mM CaCl2 in place of MgCl2. Ten to twelve wells were monitored simultaneously in a typical assay. (B) Zoomed view of the linear region of the kinetic assays shown in panel A. Fluorescence readings were performed every 15-20 seconds.
Linear regression calculations were done using the GraphPad Prism 7 software. (C) The coefficient Z’-factor (1) was used as an indicator of reproducibility and was calculated based on the relative fluorescence units (RFU) in the plateau phase (taken at 20 minutes). The Z’-factor has a […]
presented in this work were either measured in triplicate or confirmed in subsequent assays. (D) […]
assay is robust. The IC50 values reported in Figures 1C and 2 were calculated according to this kinetic parameter. There is a negative drift in fluorescence in the case of the negative control.
However, it should be noted that the mean value of it (-279) is much smaller than the signal of the […]
positive control (3397). […]

In experiment [2] the target is T1, RNase P holoenzyme from Thermotoga maritima. In words: Real-time fluorescence-based RNase P activity assay with bipartite pre-tRNA substrate. In kind it is biochemical. Particulars: fluorescent bipartite pre-tRNA substrate, holoenzyme 33 nM, 10% PEG 200 in place of DMSO. The procedure:
as §1
The bipartite pre-tRNA substrate derived from pre-tRNA^Phe from T. maritima (Supplementary Figure S13) was designed for the ease of chemical synthesis and conceived from the fact that the anticodon loop is not required for RNase P recognition (Reiter et al.). As for the Mh substrate, fluorescent bipartite pre-tRNA was coupled to Black Hole Quencher 1 (BHQ1) at the 5′-end of the 5′ oligo, and to Alexa Fluor 488 at the 3′-end of the 3′ oligo (see Supplementary Table S1). The probes were purchased from Integrated DNA Technologies (IDT). A requested scale of 250 nmol yielded 27.4 nmol (0.36 mg) for the 5′ oligo and 3.8 nmol (50 μg) for the 3′ fluorescent oligo. Before use, the probes were diluted from a 100 μM stock (dissolved in water) and assembled by mixing and heating to 3.6 μM in activity buffer L (Tris–HCl pH 7.4 33 mM, HEPES 66 mM, 100 mM AmOAc and 10 mM MgCl2).
as §2, with “software. […]” for “software.”

For experiment [3], the system named is 3'-biotinylated minihelix (Mh; pMini3bpUG) (RNA, hairpin) GAUCUGAAUGCGGAAACGCGCCAC
In words: biolayer interferometry. Particulars: Mg2+ 10 mM, NH4+ 100 mM (ammonium acetate); 20 mM HEPES pH 7.4, DMSO, 30°C; compound 15.6-500 µM.

The structures appear in SMILES notation.

`CN(C)c1ccc(C(=C2C=CC(=[N+](C)C)C=C2)c2ccc(N(C)C)cc2)cc1` [Gentian violet, tris(4-(dimethylamino)phenyl)methylium chloride, reference compound]: the concentration for half-maximal inhibition (IC50) (as a rule, the concentration that gives 50% inhibition) in experiment [1] came out at 7.3 ± 1.6 µM; in experiment [2], 16.2 ± 2.1 µM. Moreover, in experiment [3], the KD – broadly, the concentration at which binding is half-saturated – is 8 µM.

The record behind these values is publication PMC6614837 (Nucleic Acids Research, 2019).
